In patent US20250313574A1, “SIALIC ACID DERIVATIVES AND METHODS OF USING SAME” (EISAI R&D MANAGEMENT CO., LTD., priority 2022, published 2025):

Columns and labels:
[1] = target: Recombinant Human Siglec-3/CD33 protein (His-CD33) (Homo sapiens (Human), UniProt P20138); assay: Differential scanning fluorimetry (DSF) thermal shift assay; type: binding
Method: In the DSF assay, as the temperature increases, the protein gets gradually unfolded, exposing hydrophobic regions in which a fluorescent dye binds causing the fluorescence signal to increase. The midpoint of the unfolding transitions is called the thermal melt (Tm) or denaturation temperature and the Tm was defined as the peak apex in the derivative curve. Here, the Tm temperature of CD33 in the presence and absence of A-001 at a concentration of 50 μM was examined.
Recombinant Human Siglec-3/CD33 protein was purchased from Acros (catalog no. CD3-H5226) and reagents used in this study are shown in the Table 1 below.
Lyophilized CD33 protein was received in 1 mg aliquots from Acros. The protein was diluted with 2.5 mL of sterile water to a concentration of 400 μg/mL (14.5 μM), aliquoted into 138 μL aliquots and stored as at −20° C. On the day of analysis, the protein was thawed and […] solution was diluted to […] using buffer containing 133 mM NaCl, 133 mM phosphate buffered solution and 13.9× Sypro Orange dye in water in a quantity to cover the amount of samples tested on the day of the analysis.
200 μM stock solutions of A-001 containing 0.2% DMSO in water was supplied by compound management in a 384-well plate format.
Sample matrix were prepared by adding 7.5 μL of the protein buffer stock solution followed by addition of 2.5 μL of the 200 μM compound solutions in 384-well PCR plates to give a final volume of 10 μL per well consisting of 0.5 μM CD33 protein, 100 mM phosphate buffered solution pH 7.4, 100 mM NaCl, 10× SYPRO orange dye and 50 μM compound concentration (final DMSO concentration ˜0.2%). Using the Applied Biosystems® Protein Thermal Shift software (algorithm version 1.3.), the denaturation temperature or thermal melt (Tm) of the unbound and ligand bound CD33 protein was automatically assigned and the difference in thermal melt (ΔTm D) was calculated using the derivative curve by the Protein Thermal Shift software.
Recombinant human CD33 protein (0.5 μM) was incubated under buffered conditions in the presence of SYPRO orange dye, a temperature gradient was applied and a thermogram was produced by monitoring the fluorescence. The Tm was defined as the peak apex in the derivative curve in the study. […] Addition of […] of A-001 (Blue lines) to the CD33 protein induced significant Tm increases (ΔTm D) of 12.2±0.7° C.

[2] = target: Recombinant human CD33 protein (Homo sapiens (Human), UniProt P20138); assay: CD33 competitive binding assay for HTS drug screen (fluorescent multivalent sialic acid probe)
Summary of the method: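 Recombinant human CD33, coated overnight at 4° C from 10 μg/ml in pH 5.5 acetate, was preincubated briefly with compound. It was then exposed to a multivalent neutravidin/FITC/sialic acid analog A-375 probe (final 5 μM neutravidin, 15 μM A-375, 5 μM FITC) for 30 min at room temperature. After washing, bound FITC fluorescence was read.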

[3] = difference in thermal melt of CD33 protein (0.5 μM) with 50 μM compound
[4] = thermal melt shift of 0.5 μM CD33 protein with 50 μM compound

Chain of Recombinant Human Siglec-3/CD33 protein (His-CD33) (P20138 18-259): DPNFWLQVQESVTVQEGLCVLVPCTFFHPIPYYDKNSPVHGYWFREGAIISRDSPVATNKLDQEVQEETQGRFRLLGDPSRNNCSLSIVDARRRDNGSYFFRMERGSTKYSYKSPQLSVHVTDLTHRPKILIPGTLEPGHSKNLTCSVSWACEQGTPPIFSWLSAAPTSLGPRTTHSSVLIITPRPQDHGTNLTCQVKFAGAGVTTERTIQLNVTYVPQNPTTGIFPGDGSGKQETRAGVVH
Chain of Recombinant human CD33 protein (P20138 18-259): as above

Question: Which “DSF (dTmD)” value [1, 3] does the source give for `CC(=O)N[C@H]1[C@H]([C@H](O)[C@H](O)CNC(=O)c2cc(C)c(O)c(C)c2)O[C@@](C/C=C/c2cccc(CNC(=O)c3ccc(Nc4ncccn4)cc3)c2)(C(=O)O)C[C@@H]1O` [A-240] here?
Answer: 6.2 °C

Question: And the EC50 [2]?
Answer: 227 nM

Question: What does the source list for `CC(=O)N[C@H]1[C@H]2O[C@](C(=O)O)(C/C=C/CCC[C@@H](NC(=O)[C@@H]3CCCOC3)c3cccc(c3)COc3c(C)cc(cc3C)C(=O)NC[C@@H](O)[C@H]2O)C[C@@H]1O` [A-354]?
Answer: DSF (dTmD) [1, 3]: 1.5 °C; EC50 [2]: 27500 nM

Question: What does the source list for `CC(=O)N[C@H]1[C@H]2O[C@](C(=O)O)(C/C=C/c3cccc(c3)[C@@H](NC(=O)[C@H]3CCCOC3)CCCCOc3c(C)cc(cc3C)C(=O)NC[C@@H](O)[C@H]2O)C[C@@H]1O` [A-348]?
Answer: DSF (dTmD) [1, 3]: 3.6 °C; EC50 [2]: 10100 nM

Question: Which “DSF (dTmD)” value [1, 3] does the source give for `Cc1cc(C(=O)NC[C@@H](O)[C@@H](O)[C@@H]2O[C@@](C/C=C/c3cccc(CNC(=O)CC4CCOCC4)c3)(C(=O)O)C[C@H](O)[C@H]2NC(=O)Cn2cc(C3CCCCC3)nn2)cc(C)c1O` [A-274] here?
Answer: 5.7 °C

Question: And the EC50 [2]?
Answer: 4700 nM

Question: Which results are given for `CC(=O)N[C@H]1[C@H]([C@H](O)[C@H](O)CNC(=O)c2cc(C(F)(F)F)cc(C(F)(F)F)c2)O[C@@](CCN2CCOC[C@@]23CCN(C(=O)OC(C)(C)C)C3)(C(=O)O)C[C@@H]1O` [A-168]?
Answer: DSF (dTmD) [1, 4]: 8.3; EC50 [2]: 1970 nM

Question: Which “DSF (dTmD)” value [1, 4] does the source give for `CC(=O)N[C@H]1[C@H]([C@H](O)[C@H](O)CNC(=O)c2cc(C)c(O)c(C)c2)O[C@@](CCN2CCOC[C@@]23CCN(C(=O)N(C)C(C)C)C3)(C(=O)O)C[C@@H]1O` [A-061] here?
Answer: 7.5

Question: And the EC50 [2]?
Answer: 235 nM

Question: How did the “DSF (dTmD)” value [1, 4] turn out when `CC(=O)N[C@H]1[C@H]([C@H](O)[C@H](O)CNC(=O)c2cc(C)c(O)c(C)c2)O[C@@](CCN2CCOC[C@@]23CCN(C(=O)NC2CCCCC2)C3)(C(=O)O)C[C@@H]1O` [A-045] was run?
Answer: 12.6

Question: And the EC50 [2]?
Answer: 19 nM

Question: How did the “DSF (dTmD)” value [1, 4] turn out when `CC(=O)N[C@H]1[C@H]([C@H](O)[C@H](O)CNC(=O)c2cc(F)c(F)c(F)c2)O[C@@](CCN2CCOC[C@@]23CCN(C(=O)OC(C)(C)C)C3)(C(=O)O)C[C@@H]1O` [A-185] was run?
Answer: 5.0

Question: And the EC50 [2]?
Answer: 3600 nM

Question: For `Cc1cc(C(=O)NC[C@@H](O)[C@@H](O)[C@@H]2O[C@@](C/C=C/c3cccc(CNC(=O)C4CCCO4)c3)(C(=O)O)C[C@H](O)[C@H]2NC(=O)Cn2cc(C3CCCCC3)nn2)cc(C)c1O` (stereo partly drawn) [A-267], which “DSF (dTmD)” value [1, 3] is on record?
Answer: 3.8 °C

Question: What about the EC50 [2] of the same molecule?
Answer: 9170 nM

Question: For `CC(=O)N[C@H]1[C@H]([C@H](O)[C@H](O)CNC(=O)c2cc(C)c(O)c(C)c2)O[C@@](C[C@H]2COC[C@]3(CCN(C(=O)OC(C)(C)C)C3)N2)(C(=O)O)C[C@@H]1O` [A-224], which “DSF (dTmD)” value [1, 3] is on record?
Answer: 8.9 °C

Question: What about the EC50 [2] of the same molecule?
Answer: 143 nM

Question: `CC(=O)NC1[C@H]([C@H](O)[C@H](O)CNC(=O)c2cc(C)c(O)c(C)c2)O[C@@](CC(=O)N2CCOC[C@@]23CCN(C(=O)OC(C)(C)C)C3)(C(=O)O)C[C@@H]1O` (stereo partly drawn) [A-221] was tested. Which “DSF (dTmD)” value [1, 3] did it give?
Answer: 7.0 °C

Question: What about the EC50 [2] of the same molecule?
Answer: 162 nM

Question: What does the source list for `CC(=O)N[C@H]1[C@H]([C@H](O)[C@H](O)CNC(=O)c2cc3ncccn3n2)O[C@@](CCN2CCOC[C@@]23CCN(C(=O)OC(C)(C)C)C3)(C(=O)O)C[C@@H]1O` [A-122]?
Answer: DSF (dTmD) [1, 4]: 12.4; EC50 [2]: 32 nM

Question: How did the “DSF (dTmD)” value [1, 3] turn out when `Cc1cc(C(=O)NC[C@@H](O)[C@@H](O)[C@@H]2O[C@@](C/C=C/c3cccc(CNC(=O)C4CCC[C@H](NS(C)(=O)=O)C4)c3)(C(=O)O)C[C@H](O)[C@H]2NC(=O)Cn2cc(C3CCCCC3)nn2)cc(C)c1O` (stereo partly drawn) [A-282] was run?
Answer: 6.2 °C

Question: And the EC50 [2]?
Answer: 1680 nM

Question: Which “DSF (dTmD)” value [1, 4] does the source give for `CC(=O)N[C@H]1[C@H]([C@H](O)[C@H](O)CNC(=O)c2cn(C)nc2C)O[C@@](CCN2CCOC[C@@]23CCN(C(=O)OC(C)(C)C)C3)(C(=O)O)C[C@@H]1O` [A-136] here?
Answer: 6.5

Question: What about the EC50 [2] of the same molecule?
Answer: 440 nM

Question: How did the “DSF (dTmD)” value [1, 4] turn out when `CC(=O)N[C@H]1[C@H]([C@H](O)[C@H](O)CNC(=O)c2nc(C)oc2C)O[C@@](CCN2CCOC[C@@]23CCN(C(=O)OC(C)(C)C)C3)(C(=O)O)C[C@@H]1O` [A-140] was run?
Answer: 7.5

Question: And the EC50 [2]?
Answer: 350 nM
